Experimental data reported in patent EP2411506B1, “TUMOR SUPPRESSION USING HUMAN PLACENTA-DERIVED INTERMEDIATE NATURAL KILLER CELLS AND IMMUNOMODULATORY COMPOUNDS” (Celularity, Inc., priority 2009, dated 2010).

Key:
[1] = tested on: day 21 cultivated placental NK cells; experiment: ELISA of perforin and granzyme B secretion from treated NK cells; type: cell-based, human; settings: treated day 21 cultivated placental NK cells compared to controls
Method: In a separate experiment, secretion of perforin and granzyme B from pomalidomide- or lenalidomide-treated day 21 cultivated placental NK cells was evaluated by ELISA.

cultured PINK cells = experiment: qRT-PCR gene expression analysis of lenalidomide- and pomalidomide-treated cultured PINK cells; type: cell-based, human; settings: for expression of GM-CSF, increase: treated PINK cells vs untreated
Description: RNA isolation and purification.
Quantitative real-time (qRT-PCR) analysis.

NK cells = experiment: Flow cytometry of GZMB-positive NK cells after pomalidomide treatment; type: cell-based, human; settings: increase vs untreated
placental NK cells = experiment: Luminex (Five-Plex Antibody Kit) of GM-CSF and TNF-α secretion from treated NK cells; settings: treated cultured NK cells compared to controls
Method: Secretion of GM-CSF and TNF-α was evaluated by Luminex utilizing a Five-Plex Antibody Kit.

[2] = treated vs untreated cultured PINK cells (Veh = 1)
[3] = treated vs untreated cultured PINK cells (Veh = 1.01)

## Nc1cccc2c1C(=O)N(C1CCC(=O)NC1=O)C2=O (racemic) [pomalidomide, 4-amino-2-[(3RS)-2,6-dioxopiperidin-3-yl)-1H-isoindole-1,3(2H)-dione]
[1]
  increase in granzyme B secretion: 69%
  increase in perforin secretion: 121%
Cultured PINK cells; increase vs untreated, qRT-PCR
  increased granzyme B (GZMB) gene expression: 60% ± 1.7%
Cultured PINK cells; qRT-PCR
  expression of GM-CSF, increase: 396% ± 0.3%
Cultured PINK cells; [2]
  Fold change of gene expression: ACTB: 0.77
  Fold change of gene expression: BAX: 2.23
  Fold change of gene expression: CCL2: 5.46
  Fold change of gene expression: CCL3: 2.2
  Fold change of gene expression: CCL5: 1.78
  Fold change of gene expression: CCR5: 0.68
  Fold change of gene expression: CD8A: 2.39
  Fold change of gene expression: CD68: 8.74
  Fold change of gene expression: CD80: 1.59
  Fold change of gene expression: CSF1: 1.41
  Fold change of gene expression: CSF2: 3.96
  Fold change of gene expression: ECE1: 1.56
  Fold change of gene expression: FAS: 1.34
  Fold change of gene expression: GUSB: 1.76
  Fold change of gene expression: GZMB: 1.59
  Fold change of gene expression: IL2RA: 1.58
  Fold change of gene expression: IL8: 1.62
  Fold change of gene expression: LTA: 2.88
  Fold change of gene expression: PRF1: 1.17
  Fold change of gene expression: PTGS2: 1.68
  Fold change of gene expression: SKI: 1.96
Cultured PINK cells; [3]
  Fold change of gene expression: GNLY: 1.96
  Fold change of gene expression: IL1A: 2.61
  Fold change of gene expression: TBX21: 2.05
Cultured PINK cells; treated vs untreated cultured PINK cells (Veh = 1.02)
  Fold change of gene expression: IL10: 1.52
NK cells
  increased percentage of GZMB-positive NK cells: 25%
Placental NK cells
  increase in GM-CSF secretion: 357%
  increase in TNF-α secretion: 147%

## Nc1cccc2c1CN(C1CCC(=O)NC1=O)C2=O (centres unmarked) [lenalidomide, 3-(4'aminoisoindoline-1'-one)-1-piperidine-2,6-dione]
[1]
  increase in granzyme B secretion: 113%
  increase in perforin secretion: 86%
Cultured PINK cells; qRT-PCR
  expression of GM-CSF, increase: 232% ± 1.6%
Cultured PINK cells; [2]
  Fold change of gene expression: BAX: 1.39
  Fold change of gene expression: CCL5: 1.24
  Fold change of gene expression: CCR5: 0.9
  Fold change of gene expression: CD8A: 1.3
  Fold change of gene expression: CD68: 4.04
  Fold change of gene expression: CSF2: 2.32
  Fold change of gene expression: FAS: 1.11
  Fold change of gene expression: GUSB: 1.13
  Fold change of gene expression: IL2RA: 1.26
  Fold change of gene expression: TNFRSF18: 0.7
Placental NK cells
  increase in GM-CSF secretion: 166%
  increase in TNF-α secretion: 76%
